Source: US20060153912A1 (BASF Aktiengesellschaft, priority 2002, published 2006)
Each block holds one compound with its values, some of them ahead of it.

Assays:
[1] = Color stability of 50% strength water/methanol solutions stirred at reflux (65° C.) in air, Gardner/Hazen color number
[2] = Color stability of 10% strength solutions in water/methanol (1:1), 7 h at 65° C., with and without stabilizer; assay type: physicochemical; conditions: 10% strength solution in water/methanol (1:1), no additive
Protocol: The experiments took place under the following conditions: 10% strength solutions in water/methanol (1:1)—7 h at 65° C.

[3] = 50% choline ascorbate solution, additive 1% by weight, reaction time 4 h
[4] = 50% solution in 1:1 water/methanol, without additive, reaction time 0 h
[5] = 50% solution in 1:1 water/methanol, without additive, reaction time 1 h
[6] = 50% solution in 1:1 water/methanol, without additive, reaction time 7 h
[7] = 50% choline ascorbate solution, additive 1% by weight, reaction time 3 h
[8] = 50% choline ascorbate solution, additive 1% by weight, reaction time 5 h

Color number Gardner [1, 3]: 0.2
Color number Hazen [1, 3]: 53
SMILES: O=C(O)CCCC[C@@H](S)CCS (racemic) [Dihydrolipoic acid]

Color number Gardner [1, 3]: 0.1
Color number Hazen [1, 3]: 35
SMILES: N[C@@H](CS)C(=O)O [Cysteine]

Color number Gardner [1, 3]: 0.4
Color number Hazen [1, 3]: 122
SMILES: N[C@@H](CCC(=O)N[C@@H](CS)C(=O)NCC(=O)O)C(=O)O [Glutathione]

Color number Gardner [1, 3]: 0.9
Color number Hazen [1, 3]: 162
SMILES: CC(=O)N[C@@H](CS)C(=O)O [N-Acetylcysteine]

Continued, compound first:

SMILES: C[N+](C)(C)CCO.O=C([O-])C(O)C(O)C(=O)O (stereo not drawn) [Choline bitartrate]
Color number Gardner [2]: 0.1
Color number Hazen [2]: 32
Color number Gardner [1, 4]: 0.1
Color number Hazen [1, 4]: 27
Color number Gardner [1, 5]: 0.1
Color number Hazen [1, 5]: 30
Color number Gardner [1, 6]: 0.1
Color number Hazen [1, 6]: 28

SMILES: C[N+](C)(C)CCO.[Cl-] [Choline chloride]
Color number Gardner [2]: 0.1
Color number Hazen [2]: 35

SMILES: O=C1O[C@H]([C@@H](O)CO)C(O)=C1O [L-(+)-Ascorbic acid]
Color number Gardner [2]: 0.1
Color number Hazen [2]: 27
Color number Gardner [1, 4]: 0.1
Color number Hazen [1, 4]: 27
Color number Gardner [1, 5]: 0.1
Color number Hazen [1, 5]: 31
Color number Gardner [1, 6]: 0.1
Color number Hazen [1, 6]: 29

SMILES: OB(O)c1ccccc1 [Phenylboronic acid]
Color number Gardner [1, 3]: 2.7
Color number Hazen [1, 3]: 589

SMILES: OP(O)O [Phosphorous acid]
Color number Gardner [1, 3]: 0.7
Color number Hazen [1, 3]: 163

SMILES: O=C1O[C@H]([C@@H](O)CO)C([O-])=C1O.[Na+] [Sodium ascorbate]
Color number Gardner [2]: 0.1
Color number Hazen [2]: 31
Color number Gardner [1, 4]: 0.1
Color number Hazen [1, 4]: 26
Color number Gardner [1, 5]: 0.1
Color number Hazen [1, 5]: 28
Color number Gardner [1, 6]: 0.1
Color number Hazen [1, 6]: 31

SMILES: O=c1[nH]c(=O)c2[nH]c(=O)[nH]c2[nH]1 [Uric acid]
Color number Gardner [1, 7]: 0.9
Color number Hazen [1, 7]: 162
Color number Gardner [1, 8]: 1.4
Color number Hazen [1, 8]: 237
